The values that follow come from patent publication US20060217305A1, “Induction of tumor cell senescence by retinoid receptor agonists and antagonists” (Ordway Research Institute, Inc., priority 2005, published 2006).

The subject of experiment [1] is DR5 RARE-containing promoter in MCF-7 cells. Nature of the experiment: DR5-luciferase transient transfection assay (RARE-dependent transcription). The settings on record: 100 nM, 24 hrs. The format is cell-based, human. The procedure:
The assays were carried out in triplicate. RA is all-trans retinoic acid. LGD1550 is a pan-RAR agonist. LG100815 is a pan-RAR antagonist.
To confirm the ability of LG100815 to antagonize RARE-dependent induction of transcription analysis of firefly luciferase expression from a RARE-containing artificial promoter DR5 (Stratagene, catalog number 240119) was performed. Cells were plated to the density of 3×10^5 in P60 24 hrs before transient transfection. DR5 reporter plasmid (4 μg) was mixed with the SV40-driven-Renilla luciferase control plasmid (0.04 μg) and transfected using Lipofectamine Plus (Life Technologies/Invitrogen, Carlsbad, Calif.) as described by the manufacturer. 3 hrs after transfection, cells were rinsed three times with PBS, trypsinized and replated in a 12-well plate to the density of 5×10^4 cells per well. Retinoid agonists and antagonists were added 48 hrs later, and the luciferase assay was performed after another 24 hrs.

The subject of another experiment is MCF-7 cells. Nature of the experiment: senescence-associated β-galactosidase (SA-β-gal) positive cells. In kind it is cell-based, human. The settings on record: 7-day treatment (FIG. 3 legend: 8 days); concentrations as in FIG. 2. From the text:
The bars represent percentages of SA-β-gal+ cells after 8 days of treatment with the indicated compounds (in triplicate). The compounds were used at the same concentrations as in FIG. 2.
To test this, we have analyzed the effects of different compounds on the growth of MCF-7 cells, as measured by the cell number after 7 days exposure to the compounds (FIG. 2) and on the fraction of cells expressing the senescence-associated β-galactosidase activity (SA-β-gal), a marker of senescence, after 7-day treatment with the compounds (FIG. 3).

For the molecule `CC(/C=C/C=C(\C)c1cc(C(C)(C)C)cc(C(C)(C)C)c1)=C\C(=O)O` [LGD1550], the “induction of luciferase expression from DR5 RARE-containing promoter” value in experiment [1] is on record as “approximately 50 fold”. The “induction of senescent phenotype (SA-β-gal+ cells)” value in the experiment on MCF-7 cells is “induced SA-β-gal to an extent similar to that of RA”.
